Assay results published in US20110040086A1, “Novel Beta-Lactam Antibiotics, Methods for Their Production, and Their Use” (DRITTE PATENTPORTFOLIO BETEILIGUNGSGESELLSCHAFT MB, priority 2007, published 2011).

How the values were obtained:
[1] = test system: S. epidermidis 125; assay: agar diffusion test (Test System II, multi-resistant germs); assay type: cell-based, Staphylococcus epidermidis
Summary of the method: (§1)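 Each plate of Müller-Hinton agar II, inoculated with a saline suspension at McFarland 0.5, carried three discs loaded with 10, 50 and 100 μg of substance. Incubation was 18-20 h at 37 °C, with inhibition zones then measured.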

[2] = test system: Enterococcus faecalis 769; assay: as above; assay type: cell-based; parameters: key: r = resistant (no detectable zone of inhibition)
Summary of the method: as §1

[3] = test system: Staphylococcus aureus 315; assay: as above; assay type: cell-based; parameters: key: r = resistant (no detectable zone of inhibition)
Summary of the method: as §1

[4] = test system: E. faecalis 945; assay: as above; assay type: cell-based, Enterococcus faecalis; parameters: key: r = resistant (no detectable zone of inhibition)
Summary of the method: as §1

[5] = test system: S. aureus ATCC 6538; assay: as above; assay type: cell-based, Staphylococcus aureus
Summary of the method: as §1

[6] = test system: S. aureus 38418; assay: as above; assay type: cell-based, Staphylococcus aureus
Summary of the method: as §1

[7] = test system: S. epidermidis 1071; assay: as above; assay type: cell-based, Staphylococcus epidermidis; parameters: key: r = resistant (no detectable zone of inhibition)
Summary of the method: as §1

[8] = test system: S. epidermidis 1068; assay: as above; assay type: cell-based, Staphylococcus epidermidis; parameters: key: r = resistant (no detectable zone of inhibition)
Summary of the method: as §1

[9] = test system: S. epidermidis 847; assay: as above; assay type: cell-based, Staphylococcus epidermidis; parameters: key: r = resistant (no detectable zone of inhibition)
Summary of the method: as §1

[10] = test system: S. epidermidis 563; assay: as above; assay type: cell-based, Staphylococcus epidermidis; parameters: key: r = resistant (no detectable zone of inhibition)
Summary of the method: as §1

[11] = test system: Staphylococcus aureus ATCC 6538; assay: mouse infected with Staphylococcus aureus infection model (survival); assay type: in vivo, BALB/c mice
Summary of the method: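 Survival model: S. aureus grown to extinction 0.6 at 550 nm and injected i.p. (10 μl/g body weight) into cyclophosphamide-pretreated BALB/c mice (250 then 100 mg/kg i.p.), ≥3 animals per arm. Test antibiotic dosed i.p. at 30 min and again later at the same concentration, vehicle PBS/3% DMSO.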

[12] = test system: S. aureus 520; assay: agar diffusion test (Test System II, multi-resistant germs); assay type: cell-based, Staphylococcus aureus; parameters: key: r = resistant (no detectable zone of inhibition)
Summary of the method: as §1

[13] = test system: S. aureus 34289; assay: as above; assay type: cell-based, Staphylococcus aureus; parameters: key: r = resistant (no detectable zone of inhibition)
Summary of the method: as §1

[14] = test system: S. aureus 526; assay: as above; assay type: cell-based, Staphylococcus aureus; parameters: key: r = resistant (no detectable zone of inhibition)
Summary of the method: as §1

[15] = test system: S. aureus 39105; assay: as above; assay type: cell-based, Staphylococcus aureus; parameters: key: r = resistant (no detectable zone of inhibition)
Summary of the method: as §1

[16] = test system: S. aureus 33490; assay: as above; assay type: cell-based, Staphylococcus aureus; parameters: key: r = resistant (no detectable zone of inhibition)
Summary of the method: as §1

[17] = test system: S. aureus 36881; assay: as above; assay type: cell-based, Staphylococcus aureus; parameters: key: r = resistant (no detectable zone of inhibition)
Summary of the method: as §1

[18] = test system: S. aureus North Germany strain; assay: as above; assay type: cell-based, Staphylococcus aureus; parameters: key: r = resistant (no detectable zone of inhibition)
Summary of the method: as §1

NC(=O)C1=C(NC(C(=O)NC2C(=O)N3C(C(=O)O)=C(Cl)CSC23)c2ccccc2)C(=O)C=CC1=O (centres unmarked) [1j, 3-chlorine-7-[2-(2-carbamoyl-3,6-dioxocyclohexa-1,4-dienylamino)-2-phenyl-acetylamino]-8-oxo-1-thia-5-azabicyclo[4.2.0]oct-3-en-4-carboxylic acid]
Diameter of zone of inhibition ([1]; Quantity n 0.02): 22 mm | Diameter of zone of inhibition ([1]; Quantity n 0.1): 30 mm | Diameter of zone of inhibition ([1]; Quantity n 0.2): 32 mm | Diameter of zone of inhibition ([2]; Quantity n 0.02): r | Diameter of zone of inhibition ([2]; Quantity n 0.1): 8 mm | Diameter of zone of inhibition ([2]; Quantity n 0.2): 12 mm | Diameter of zone of inhibition ([3]; Quantity n 0.02): r | Diameter of zone of inhibition ([3]; Quantity n 0.1): 8 mm | Diameter of zone of inhibition ([3]; Quantity n 0.2): 12 mm | Diameter of zone of inhibition ([4]; Quantity n 0.02): r | Diameter of zone of inhibition ([4]; Quantity n 0.1): r | Diameter of zone of inhibition ([4]; Quantity n 0.2): r | Diameter of zone of inhibition ([5]; Quantity n 0.02): 28 mm | Diameter of zone of inhibition ([5]; Quantity n 0.1): 34 mm | Diameter of zone of inhibition ([5]; Quantity n 0.2): 38 mm | Diameter of zone of inhibition ([6]; Quantity n [mol] 0.02): 22 mm | Diameter of zone of inhibition ([6]; Quantity n [mol] 0.1): 30 mm | Diameter of zone of inhibition ([6]; Quantity n [mol] 0.2): 34 mm | Diameter of zone of inhibition ([7]; Quantity n 0.02): 18 mm | Diameter of zone of inhibition ([7]; Quantity n 0.1): 26 mm | Diameter of zone of inhibition ([7]; Quantity n 0.2): 28 mm | Diameter of zone of inhibition ([8]; Quantity n 0.02): 16 mm | Diameter of zone of inhibition ([8]; Quantity n 0.1): 22 mm | Diameter of zone of inhibition ([8]; Quantity n 0.2): 26 mm | Diameter of zone of inhibition ([9]; Quantity n [mol] 0.02): 10 mm | Diameter of zone of inhibition ([9]; Quantity n [mol] 0.1): 20 mm | Diameter of zone of inhibition ([9]; Quantity n [mol] 0.2): 24 mm | Diameter of zone of inhibition ([10]; Quantity n 0.02): 20 mm | Diameter of zone of inhibition ([10]; Quantity n 0.1): 26 mm | Diameter of zone of inhibition ([10]; Quantity n 0.2): 32 mm | Survival/tested mice n/n ([11]; 2 × 0.5 mg (25 mg/kg) i.p.): 3/3 | Diameter of zone of inhibition ([12]; Quantity n [mol] 0.02): r | Diameter of zone of inhibition ([12]; Quantity n [mol] 0.1): 8 mm | Diameter of zone of inhibition ([12]; Quantity n [mol] 0.2): 12 mm | Diameter of zone of inhibition ([13]; Quantity n [mol] 0.02): r | Diameter of zone of inhibition ([13]; Quantity n [mol] 0.1): r | Diameter of zone of inhibition ([13]; Quantity n [mol] 0.2): r | Diameter of zone of inhibition ([14]; Quantity n 0.02): r | Diameter of zone of inhibition ([14]; Quantity n 0.1): r | Diameter of zone of inhibition ([14]; Quantity n 0.2): r | Diameter of zone of inhibition ([15]; Quantity n 0.02): r | Diameter of zone of inhibition ([15]; Quantity n 0.1): 16 mm | Diameter of zone of inhibition ([15]; Quantity n 0.2): 18 mm | Diameter of zone of inhibition ([16]; Quantity n [μmol] 0.02): 16 mm | Diameter of zone of inhibition ([16]; Quantity n [μmol] 0.1): 24 mm | Diameter of zone of inhibition ([16]; Quantity n [μmol] 0.2): 26 mm | Diameter of zone of inhibition ([17]; Quantity n 0.02): r | Diameter of zone of inhibition ([17]; Quantity n 0.1): 12 mm | Diameter of zone of inhibition ([17]; Quantity n 0.2): 16 mm | Diameter of zone of inhibition ([18]; Quantity n 0.02): r | Diameter of zone of inhibition ([18]; Quantity n 0.1): 12 mm | Diameter of zone of inhibition ([18]; Quantity n 0.2): 16 mm

CCOC(=O)C1=C(NC(C(=O)NC2C(=O)N3C(C(=O)O)=C(Cl)CSC23)c2ccccc2)C(=O)C=CC1=O (centres unmarked) [1l]
Diameter of zone of inhibition ([1]; Quantity n 0.019): 18 mm | Diameter of zone of inhibition ([1]; Quantity n 0.09): 26 mm | Diameter of zone of inhibition ([1]; Quantity n 0.19): 28 mm | Diameter of zone of inhibition ([2]; Quantity n 0.019): r | Diameter of zone of inhibition ([2]; Quantity n 0.09): r | Diameter of zone of inhibition ([2]; Quantity n 0.19): r | Diameter of zone of inhibition ([3]; Quantity n 0.019): r | Diameter of zone of inhibition ([3]; Quantity n 0.09): 10 mm | Diameter of zone of inhibition ([3]; Quantity n 0.19): 14 mm | Diameter of zone of inhibition ([4]; Quantity n 0.019): r | Diameter of zone of inhibition ([4]; Quantity n 0.09): r | Diameter of zone of inhibition ([4]; Quantity n 0.19): r | Diameter of zone of inhibition ([5]; Quantity n 0.019): 24 mm | Diameter of zone of inhibition ([5]; Quantity n 0.09): 30 mm | Diameter of zone of inhibition ([5]; Quantity n 0.19): 34 mm | Diameter of zone of inhibition ([6]; Quantity n [mol] 0.019): 18 mm | Diameter of zone of inhibition ([6]; Quantity n [mol] 0.09): 28 mm | Diameter of zone of inhibition ([6]; Quantity n [mol] 0.19): 30 mm | Diameter of zone of inhibition ([7]; Quantity n 0.019): 16 mm | Diameter of zone of inhibition ([7]; Quantity n 0.09): 24 mm | Diameter of zone of inhibition ([7]; Quantity n 0.19): 28 mm | Diameter of zone of inhibition ([8]; Quantity n 0.019): 14 mm | Diameter of zone of inhibition ([8]; Quantity n 0.09): 20 mm | Diameter of zone of inhibition ([8]; Quantity n 0.19): 22 mm | Diameter of zone of inhibition ([9]; Quantity n [mol] 0.019): r | Diameter of zone of inhibition ([9]; Quantity n [mol] 0.09): 20 mm | Diameter of zone of inhibition ([9]; Quantity n [mol] 0.19): 22 mm | Diameter of zone of inhibition ([10]; Quantity n 0.019): 16 mm | Diameter of zone of inhibition ([10]; Quantity n 0.09): 28 mm | Diameter of zone of inhibition ([10]; Quantity n 0.19): 30 mm | Survival/tested mice n/n ([11]; 2 × 1.0 mg (50 mg/kg) i.p.): 3/3 | Diameter of zone of inhibition ([12]; Quantity n [mol] 0.019): r | Diameter of zone of inhibition ([12]; Quantity n [mol] 0.09): r | Diameter of zone of inhibition ([12]; Quantity n [mol] 0.19): 10 mm | Diameter of zone of inhibition ([13]; Quantity n [mol] 0.019): r | Diameter of zone of inhibition ([13]; Quantity n [mol] 0.09): r | Diameter of zone of inhibition ([13]; Quantity n [mol] 0.19): r | Diameter of zone of inhibition ([14]; Quantity n 0.019): r | Diameter of zone of inhibition ([14]; Quantity n 0.09): r | Diameter of zone of inhibition ([14]; Quantity n 0.19): r | Diameter of zone of inhibition ([15]; Quantity n 0.019): r | Diameter of zone of inhibition ([15]; Quantity n 0.09): 18 mm | Diameter of zone of inhibition ([15]; Quantity n 0.19): 22 mm | Diameter of zone of inhibition ([16]; Quantity n [μmol] 0.019): 14 mm | Diameter of zone of inhibition ([16]; Quantity n [μmol] 0.09): 20 mm | Diameter of zone of inhibition ([16]; Quantity n [μmol] 0.19): 24 mm | Diameter of zone of inhibition ([17]; Quantity n 0.019): r | Diameter of zone of inhibition ([17]; Quantity n 0.09): 8 mm | Diameter of zone of inhibition ([17]; Quantity n 0.19): 18 mm | Diameter of zone of inhibition ([18]; Quantity n 0.019): r | Diameter of zone of inhibition ([18]; Quantity n 0.09): 10 mm | Diameter of zone of inhibition ([18]; Quantity n 0.19): 16 mm
